The test system of experiment [1] is HepG2 cells. As to the kind of experiment: resazurin reduction cytotoxicity assay, with CI-isobologram analysis of mixtures. It counts as cell-based, human.
Experiment [2] has as its system HepG2 cells. As to the kind of experiment: MTT cytotoxicity assay, with CI-isobologram analysis of mixtures. It counts as cell-based, human. Conditions: for reduction of cell viability at the higher concentration tested: MTT, highest concentration of the combination experiment.
Where [3] appears, read: HepG2, 24 h, resazurin, highest concentration of the combination experiment.
[4] abbreviates: HepG2, 24 h exposure, resazurin assay, spread in brackets, read-out: IC50.
The mark [5] stands for this setting: resazurin method, HepG2, 24 h, median-effect equation, read-out: Dm (median-effect concentration).
Where [6] appears, read: IC50 from MTT individual cytotoxicity experiments, used to set combination ratios, 24 h, read-out: IC50 Concentration.
[7] abbreviates: MTT method, HepG2, 24 h, median-effect equation, read-out: Dm (median-effect concentration).
Setting [8] is: read-out: Dm (median-effect concentration).

The source of these data is article PMC11988556, “Combined Cytotoxic Effects of the Fungicide Azoxystrobin and Common Food-Contaminating Mycotoxins” (Foods, 2025).

For the compound `CC1=C[C@H]2O[C@@H]3[C@H](O)C[C@](C)([C@@]2(CO)[C@H](O)C1=O)[C@]31CO1` [DON, deoxynivalenol], the “reduction of cell viability at the higher concentration tested” value (“reduction of cell viability” for short) in the experiment on HepG2 cells [1] (setting [3]) is 59%; in the experiment with HepG2 cells [2] (HepG2, 24 h), 69%. Also, the IC50 with HepG2 cells [1] (setting [4]) is 6.61 µM; in the experiment with HepG2 cells [1] (setting [5]), 5.33 µM; with HepG2 cells [2] (setting [6]), 9.39 µM; in the experiment on HepG2 cells [2] (setting [7]), 2.74 µM.
For `CO/C=C(/C(=O)OC)c1ccccc1Oc1cc(Oc2ccccc2C#N)ncn1` [AZX, azoxystrobin], the “reduction of cell viability” value in the experiment with HepG2 cells [1] (setting [3]) came out at 27%; in the experiment with HepG2 cells [2] (HepG2, 24 h) it was 43%. Further, the IC50 with HepG2 cells [1] (setting [4]) turned out to be 231 µM; with HepG2 cells [1] (setting [5]), 638 µM; with HepG2 cells [2] (setting [6]), 206 µM; in the experiment on HepG2 cells [2] (setting [7]), 284 µM.
For `CC(=O)OC[C@]12C[C@H](OC(=O)CC(C)C)C(C)=C[C@H]1O[C@@H]1[C@H](O)[C@@H](OC(C)=O)[C@@]2(C)[C@]12CO2` [T2, T-2 toxin], the “reduction of cell viability” value with HepG2 cells [1] came out at 40%. Also, the IC50 with HepG2 cells [1] (setting [8]) was determined as 0.1 µM; in the experiment with HepG2 cells [1] (read-out: IC50), 0.051 µM; with HepG2 cells [2] (setting [8]), 0.06 µM; in the experiment on HepG2 cells [2] (read-out: IC50 Concentration) it was 0.059 µM.
Take `C[C@@H]1Cc2c(Cl)cc(C(=O)N[C@@H](Cc3ccccc3)C(=O)O)c(O)c2C(=O)O1` [OTA, ochratoxin A]: the “reduction of cell viability” value in the experiment on HepG2 cells [1] (setting [3]) was found to be 44%; in the experiment on HepG2 cells [2] (HepG2, 24 h), 59%. Moreover, the IC50 in the experiment with HepG2 cells [1] (Homo sapiens, HepG2, 24 h exposure, resazurin assay, spread in brackets, read-out: IC50) stood at 147 µM; with HepG2 cells [1] (Homo sapiens, resazurin method, HepG2, 24 h, median-effect equation, read-out: Dm (median-effect concentration)) it was 87.6 µM; in the experiment with HepG2 cells [2] (Homo sapiens, HepG2, IC50 from MTT individual cytotoxicity experiments, used to set combination ratios, 24 h, read-out: IC50 Concentration) it was 195 µM; in the experiment on HepG2 cells [2] (Homo sapiens, MTT method, HepG2, 24 h, median-effect equation, read-out: Dm (median-effect concentration)) it was 57.1 µM.
